# Source: a melting point compilation (Tetko et al.; mined from patent text by program, amines drawn as free bases though some values may be those of a salt)
row,Compound,melting point [°C]
1,N#CNC(=N)CCCc1ccccc1Sc1ccccc1CCCC(=N)NC#N,155 to 157
2,O=C(Nc1cc(Cl)c(O)c(Cl)c1)c1ccccc1O,217 to 219
3,CC1(C)OC(=S)N(c2cc(C#N)ccc2F)c2ccccc21,250 to 251
4,Cc1cccc2c(-c3ccc(Cl)cc3Cl)onc12,94 to 95
5,COc1ccncc1Nc1nc(N2CCOCC2)nc(-n2c(C(F)F)nc3ccccc32)n1,161 to 163
6,CCOc1cccc(OC)c1CN1CCC(=O)C(C(c2ccccc2)c2ccccc2)C1 (stereo unspecified),137 to 138
7,CN(CCCNC(=O)NCCCOc1cccc(CN2CCCCC2)c1)CCN(Cc1ccc(F)cc1)c1ccccn1,123 to 125
8,NC1CNC(=O)C12CC2 (stereo unspecified),97 to 99
9,COc1cc2c(cc1Br)-c1c(Cl)c3c(n1CC2)C(=O)N(C(C)(C)C)CCCC3,203 to 205
10,CCOc1cc2ncc(C#N)c(Nc3ccc4c(C)cc(=O)oc4c3)c2cc1OCC,282 to 284
11,CSC(=S)C1(c2cccc(C)n2)CCCS1 (stereo unspecified),80
12,CC(=O)OCC1OC(OC(C)=O)C(N=[N+]=[N-])C(OC(C)=O)C1OC(C)=O (stereo unspecified),131 to 132
13,CC(=O)NCCCCC(NC(C)=O)C(C)=O (stereo unspecified),111 to 113
14,BrCCc1nc(-c2ccccc2)c(-c2ccccc2)o1,72 to 74
15,N#Cc1cnc2scc(Br)c2c1Br,204 to 206
16,CCCCCCCCC(SCCCCCC)C(=O)Nc1c(SC)cc(C)nc1SC (stereo unspecified),75 to 76.5
17,CC(=O)C1(O)CCC2C3CC(C)C4=CC(=O)CCC4(C)C3(F)CCC21C (stereo unspecified),232 to 235
18,CC(=O)N1CCN(c2c([N+](=O)[O-])cc([N+](=O)[O-])cc2C(F)(F)F)CC1,126
19,"NC(=O)COCCN1CCN(C(c2ccccc2)c2ccc(Cl)cc2)CC1 (single isomer, unassigned; (-))",94.3
20,CC(/C=C/c1c(C)sc(C)c1C)=C(F)\C=C\C(C)=C\CO,106 to 108
21,COc1cc2nc(-c3cc(C)c(O)c(C)c3)[nH]c(=O)c2c(OC)c1CN1CCOCC1,237 to 239
22,Cc1ccc(-c2nc(COc3ccc(CCCCn4ccnc4)cc3)co2)s1,82 to 83

row,Compound,melting point [°C]
1,NCCC1CCSc2[nH]c3ccccc3c21 (stereo unspecified),136 to 138
2,Cc1cnc2ccc(NC3=NCCN3)c(Br)c2n1,> 260
3,Nc1[nH]c(=O)[nH]c(=O)c1N,144 to 146
4,CCCCCCC(C(=O)N1CCC[C@H]1C(=O)O)n1cnc2cc(-c3ccccc3-c3nn[nH]n3)ccc21 (stereo partly specified),145 to 150
5,CC1(C)OC(=O)C(=C2NCCN2)C(=O)O1,181 to 182
6,CN(C)Cc1cccc(CSCCNc2ncc(Cc3cccnc3)c(=O)[nH]2)c1,143 to 145
7,OCc1ccc2c(ccn2-c2ccnc(N[C@H]3CC[C@H](O)CC3)n2)c1,232 to 234
8,O=C(Nc1ccc2nc(CN3CCCC3)ccc2c1)c1ccc(-c2ccc(F)cc2)nc1,210
9,COC(=O)C(NC(CO)c1ccccc1)C1CC2CCC(C1)N2 (stereo unspecified),124
10,O=C(C=Cc1cccs1)Nc1nnn[nH]1,287
11,C=C1CC2(CC)C(=O)CC(O)C2C2CCC3=CC(=O)CCC3C12 (stereo unspecified),228
12,O=S1(=O)N=CN(C2CC2)c2cc(Br)cc(F)c21,285 to 287
13,O=C1C(=Cc2sccc2Oc2ccccc2)CCc2cc(OCCn3ccnc3)ccc21,135 to 137
14,CCCO[C@@H](Cc1ccc(OCCc2nc(-c3ccc(-c4ccccc4)cc3)oc2C)c2ccsc12)C(=O)O,147 to 151
15,CC(C)(O)C[C@@H]1CO[C@](C)([C@H]2CC[C@H]3[C@@H](O)CCC[C@@]32C)C1,67
16,O=Cc1cnc(Oc2ccccc2)s1,50
17,CCn1cnc2c(Nc3cccc(C(=O)O)c3)nc(N[C@H]3CC[C@H](O)CC3)nc21,317
18,CCn1nc(C)c2c1NC(=O)CC2C (stereo unspecified),141 to 142
19,O=C(C=Cc1ccc(Cl)c([N+](=O)[O-])c1)N1CCc2c([nH]c3ccccc23)C1c1ccc2c(c1)OCO2 (stereo unspecified),240
20,C=CCCC1C=CCC2=C1C(=O)C1=C(CCCC1)C2=O (stereo unspecified),47 to 48
21,c1ccc2c(c1)CCCc1c-2n[nH]c1-c1ccncc1,217 to 219
22,O=C(Nc1ccc2ccc(-c3cccc(Br)c3)nc2n1)c1ccccc1,204 to 206

# Further lines, results first:
row,melting point [°C],Compound
1,> 200,Cc1cc(C(O)(c2ccc3c(cnn3-c3ccc(F)cc3)c2)C(F)(F)F)cn(C)c1=O (stereo unspecified)
2,158 to 160,COc1cc(C(=O)c2c(N)sc3c2CCN(C(=O)c2ccccc2)C3)ccc1OC(C)C
3,90,COC(=O)CC(C)(C)C(C)(C)S(=O)(=O)c1ccc(C)cc1
4,124 to 125,CCOC(=O)c1nc(-c2ccc(Cl)cc2Cl)n(-c2ccc(Cl)cc2)c1CF
5,222 to 223,CN(C)S(=O)(=O)c1ccccc1-c1cnc(N)c(C(=O)Nc2cccnc2)n1
6,219,CC(C)(C)OC(=O)N1CCOC(C2=C(C#N)C(c3cccc(C#N)c3Br)c3c[nH]nc3N2)C1 (stereo unspecified)
7,198 to 200,CCOC(=O)C1=CNc2ccnn2C1
8,205 to 207,Cc1csc2ccc(C(O)=S)cc12
9,62 to 63.5,CC(=O)N1CC(CCN(C)C)Cc2ccc(OCc3ccc(-c4ccccc4)cc3)cc21 (stereo unspecified)
10,91 to 92,Cc1cccc(-c2ccc3c(c2)c(CC(=O)O)cn3Cc2ccc(C(C)(C)C)cc2)c1
11,26,C=C(C)C(=O)OCCCCCc1ccc(C(F)(F)Oc2ccc(OC(F)(F)c3ccc(CCCCCOC(=O)C(=C)C)cc3)c(C)c2)cc1
12,194 to 197,CCc1noc(C)c1-c1[nH]c2ccccc2c1CC(=O)O
13,165 to 166,COC(=O)c1c(Cl)cc(Cl)cc1NC(=O)CSc1ccccc1C(=O)O
14,215,O=C(NC(=O)c1c(O)cccc1F)Nc1ccc(Cl)cc1
15,136 to 138,Cc1cc(C)c(Nc2nc(C)ccc2S(=O)(=O)c2ccc(OCc3cccc(F)c3F)cc2)c(C)c1
16,250 to 255,NC(=O)COC(=O)c1ccc(O)cc1
17,186 to 189,O=Cc1c2ccccc2c(C=O)c2c(Cl)cccc12
18,67.2 to 68.2,CCCC(=O)c1cccc2cc[nH]c12
19,158 to 160,CCN(CC)C(=O)CC1CCN(Cc2cnc3c(C)c(NC(=O)c4ccc(-c5ccc(F)cc5)cc4)ccc3c2)CC1

row,melting point [°C],Compound
1,81 to 82,CC(C)(Oc1ccc(Cl)cc1)C(=O)NCCO[N+](=O)[O-]
2,269,Cc1nc(NC(=O)c2cnn3c(C(F)F)cc(-c4ccc(C(F)(F)F)cc4)nc23)sc1S(=O)(=O)N1CCN(C)CC1
3,118 to 120,O=Cc1ccc(OCc2ccccc2)c(O)c1
4,258,O=C1c2ccccc2C(=O)c2sc(-c3ccsc3)nc21
5,197 to 198,CCc1c(OC)cc(C)c(C=CC(C)=CC=CC(C)=CC(=O)O)c1C
6,98 to 100,CCOCn1c(-c2ccc(Cl)cc2)c(C#N)c(Sc2ccc(Cl)cc2)c1C(F)(F)F
7,260,Cc1cc(C2CCC2)n2nc(S(=O)(=O)Nc3c(Cl)cccc3Cl)nc2n1
8,134 to 139,COC(=O)[C@H](Cc1ccccc1)Oc1c(C)cc(-c2c3ccccc3c(Br)c3sc(C)c(C)c23)cc1C
9,85 to 87.5,COC(=O)c1c(OC)cc(OC)nc1C(F)(F)F
10,217 to 219,O=C(O)CCOc1cccc2ncccc12
11,139,COC(=O)CCN1CCC(=C2c3ccn(C)c3CCn3ncnc32)CC1
12,69 to 71,COC(=O)c1oc(Cl)nc1C
13,113 to 114,Cc1c(Cl)cccc1NC(=O)C(C)(C)C
14,185 to 186,Cc1oc(-c2ccccc2)nc1CCC(=NO)c1ccc(CCCC2OC(=O)NC2=O)cc1 (stereo unspecified)
15,> 270,COc1ccc(CNC(=O)c2c(NC(=O)c3ccc(C(=O)O)cc3)sc3c2CCCC3)cc1OC
16,133 to 136,CSc1ccc(N2CCCN(/C(C)=C(/C#N)C(=S)/N=C/N(C)C)CC2)cc1
17,186 to 187,CC1(CNC(=O)CCl)OCCc2c1[nH]c1ccccc21 (stereo unspecified)
18,138 to 142,CCN(CC)CCOc1ccc(-c2sc3ccccc3c2C(=O)c2cc(C)cc(C)c2)cc1
19,86 to 88,FC(F)(F)c1ccc2c(c1)N=Cc1ccccc1O2

row,melting point [°C],Compound
1,78 to 79,CC(C)(C)OC(=O)NCC12CCC1CN(Cc1ccccc1)C2 (stereo unspecified)
2,256,Cc1cc(O)cc2oc(=O)ccc12
3,73 to 74,C=CCc1c2c(cc(OCc3ccccc3)c1C(C)(C)C)CC(C)(C)O2
4,82,COc1ccc(S(=O)(=O)N(Cc2cccnc2)c2c(C(=O)O)cc(C)cc2-c2ccco2)cc1
5,226,CC(C)(C)OC(=O)Nc1cccc(Cn2nc(C(=O)O)c3c2-c2ccc(OCc4cncnc4)cc2CC3)c1
6,134 to 135,CCNC(=O)CCCNC(=O)CCCNC(=O)OC(C)(C)C
7,92 to 94,CC(=O)OC1CCC(NC(=O)Nc2ccccc2CCc2cc(C(C)(C)C)c(O)c(C(C)(C)C)c2)CC1 (stereo unspecified)
8,213 to 215,CC(C)COc1ccccc1Nc1ncc(C(=O)O)c(=O)[nH]1
9,220,COc1cccc(C2=C(C#N)C(c3ccccc3[N+](=O)[O-])c3c[nH]nc3N2)c1 (stereo unspecified)
10,75 to 76,O=C(O)CCCc1cccc2c1OC=CO2
11,98 to 100,CCNc1nc2ccc(CCc3ccc(CN4CCCCC4)o3)cc2o1
12,81,CCC1CC(=O)N(Cc2ccc(NS(C)(=O)=O)cc2)N=C1c1ccc(OC)c(OC)c1 (stereo unspecified)
13,123 to 125,C[C@H]1CN(C(=O)OC(C)(C)C)S(=O)(=O)O1
14,266,CCOC(=O)C1=C(N)NC2=C(C(=O)CCC2)C1c1cccc(Cl)c1 (stereo unspecified)
15,243 to 244,COc1ccc2c(c1)c(-c1[nH]c3nccnc3c1C)cn2C
16,91 to 91.5,NC(CCNc1ccccc1)=NO
17,53 to 55,CC(C)(CCCCCCCCCCOCc1ccccc1)C(=O)O
18,129,COC(=O)CCCc1cc2cc(Cl)ccc2n1S(=O)(=O)c1cccc2nc(C)sc12
19,126 to 127,Cc1nc(-c2ccc(C(F)(F)F)cc2)sc1COc1ccc(CC(=O)O)cc1Cl
